Assay results as given in patent EP0149197B2, “Pharmaceutical compositions containing drugs which are sparingly soluble in water or instable and methods for their preparation” (priority 1983, dated 1985).
In brackets after ≈: the same amount, converted by molar mass. Where two headings read alike, the source gives them in different places. Marks after values point to notes of the source that are not given here.

Experiments:
[1] = Saturation solubility with and without 4 % hydroxypropyl-methyl-β-cyclodextrin (DS 0,96; MS 0,43); assay type: physicochemical
Source text: B. In ähnlicher Weise wurde die Löslichkeit von Arzneistoffen in einer 4 %-igen wässrigen Lösung von Hydroxypropyl-methyl-β-cyclodextrin (DS = 0,96; MS = 0,43) untersucht. Die erhaltenen Ergebnisse sind in der nachfolgenden Tabelle 2 zusammengefaßt, wobei für jeden Arzneistoff das Verhältnis R von Sättigungslöslichkeit in Wasser bzw. beim angegebenen pH-Wert mit und ohne Zusatz des β-Cyclodextrinderivats angegeben ist.

[2] = Saturation solubility in phosphate buffer with and without 10 % hydroxypropyl-β-cyclodextrin (MS 0.35); conditions: for Verh.S1 zu S2: given as 1: x; for solubility thermodynamic at 24 h: phosphate buffer
Method: A. Unter Verwendung einer 10 %-igen Hydroxypropyl-β-cyclodextrinlösung (MS 0.35) in Phosphatpufferlösung wurde unter denselben Bedingungen wie in Beispiel 1 die Sättigungslöslichkeit bei 25°C für verschiedene Arzneistoffe bestimmt. In Tabelle 1 sind die Sättigungslöslichkeit S1 in Phosphatpufferlösung und S2 in Phosphatpufferlösung unter Zusatz von 10 % Hydroxypropyl-β-cyclodextrin angegeben. Tabelle 1

[3] = with the 2,6-Di-O-methylderivat of β-cyclodextrin; cited from earlier work
[4] = Storage stability of indometacin solutions at 21°C, HPLC content; assay type: physicochemical; conditions: aqueous buffer; concentration of the saturated solution in phosphate buffer (solution A); read-out: gesättigte Lösung in Phosphatpufferlösung
Method: In 10 ml Phosphatpufferlösung wurden bei 25°C 0,7 g Hydroxyethyl-β-cyclodextrin (MS 0.43) und 0,04 g Indometacin bis zur klaren Lösung eingearbeitet. Diese wurde durch ein Membranfilter (0,22 µm) filtriert und unter Laminarflow in eine vorsterilisierte Injektionsflasche abgefüllt, die bei 21°C eingelagert wurde (B). Parallel dazu wurde eine gesättigte Indometaeinlösung in Phosphatpufferlösung (0,21 mg/ml) unter gleichen Bedingungen aufbewahrt (A). Die hochdruckflüssigkeitschromatographisch ermittelten Wirkstoff-Konzentrationen sind in Tabelle 3 wiedergegeben. Die wesentlich verbesserte Stabilität des erfindungsgemäßen Präparates ist offensichtlich. Tabelle 3

[5] = Dissolution rate of medroxyprogesterone acetate from tablets; assay type: physicochemical; conditions: tablet with Hydroxyethyl-β-cyclodextrin (MS 0.43) versus same tablet excipients without β-cyclodextrin ether
Method: In 100 ml Wasser wurden 7 g Hydroxyethyl-β-cyclodextrin (MS 0.43) sowie 0,5 g Medroxyprogesteronacetat gelöst. Anschließend wurde das Wasser auf einem Rotationsverdampfer abgezogen. Der Rückstand […] wurde pulverisiert und mit 366 mg Calcium-hydrogenphosphat. 2H2O, 60 mg Maisstärke, 120 mg Cellulosepulver(mikrokristallin), 4,2 mg hochdisperse Kieselsäure (Aerosil® 200) und 4,8 mg Magnesiumstearat zu Tabletten mit einem Endgewicht von 630,0 mg und pro Einzeldosis 5 mg Wirkstoff verarbeitet. Die Lösungsgeschwindigkeit des Medroxyprogesteronacetats aus dieser Zubereitung ist etwa 21 mal höher als bei Einsatz der gleichen Tablettenhilfsstoffe ohne Zusatz des β-Cyclodextrinethers.

[6] = in water; cited from earlier work
[7] = Acute intravenous toxicity in rats; assay type: in vivo, Ratten; conditions: rat, in vivo, iv
Source text: (§1) Die akute intravenöse Toxizität von einigen β-Cyclodextrinen wurde an Ratten untersucht, wobei die nachfolgenden Ergebnisse erhalten wurden. Dabei zeigte sich, daß die Toxizität der erfindungsgemäß eingesetzten Derivate überraschend eine ganze Größenordnung niedriger ist. Tabelle 5

[8] = test system: roten Blutkörperchen (menschlichen Ursprungs); assay type: cell-based; conditions: human, 30 min
Method: In einer weiteren Versuchsreihe wurde die hämolytische Wirkung der Methylether gemäß DE-A-3 118 218 mit derjenigen eines erfindungsgemäß verwendeten Ethers verglichen. Dazu wurden 100 µl einer physiologischen Kochsalzlösung mit einem Cyclodextringehalt von 10 %, 800 µl eines Puffers (400 mg MOPS, 36 mg Na2HPO4·2 H2O, 1,6 g NaCl in 200 ml H2O) und 100 µl einer Suspension von roten Blutkörperchen (menschlichen Ursprungs, dreimal mit Kochsalzlösung gewaschen), 30 Min. lang bei 37°C gemischt. Anschließend wurde zentrifugiert und die Extinktion bei 540 mn bestimmt.
Kontrollen: • a) 100 µl Kochsalzlösung + Puffer → 0 % Hämolyse • b) 900 µl Wasser → 100 % Hämolyse
Die gefundenen Ergebnisse sind in der nachfolgenden Tabelle 6 zusammengefaßt, wobei die Konzentrationen angegeben sind, bei denen eine 50 %-ige bzw. eine 100 % Hämolyse stattfand. Tabelle 6

[9] = test system: Ratten; assay: Acute intravenous toxicity in rats; assay type: in vivo; conditions: rat, i.v.
Source text: as §1

[10] = phosphate buffer, pH 6.6
[11] = in water, 4 % Hydroxypropyl-methyl-β-cyclodextrin

## COc1cc(N)c(Cl)cc1C(=O)NC1CCN(CCCOc2ccc(F)cc2)CC1OC (stereo not drawn) [Cisaprid]
[1]
  Verhältnis R von Sättigungslöslichkeit mit und ohne Zusatz des β-Cyclodextrinderivats: 3

## C[C@@H]1C[C@H]2[C@@H]3CCC4=CC(=O)C=C[C@]4(C)[C@@]3(F)[C@@H](O)C[C@]2(C)[C@@]1(O)C(=O)CO [Dexamethason]
[2]
  Verh.S1 zu S2: 172,0
[2]; 10% hp-beta-cd, pH 6.6
  solubility thermodynamic at 24 h: 14300 µg/mL (≈ 36400 µM)
[2]; pH 6.6, aqueous buffer
  solubility thermodynamic at 24 h: 83 µg/mL (≈ 211 µM)

## CN1C(=O)CN=C(c2ccccc2)c2cc(Cl)ccc21 [Diazepam]
[2]
  Verh.S1 zu S2: 29,4

## C[C@H]1O[C@@H](O[C@H]2[C@@H](O)C[C@H](O[C@H]3[C@@H](O)C[C@H](O[C@H]4CC[C@@]5(C)[C@H](CC[C@@H]6[C@@H]5CC[C@]5(C)[C@@H](C7=CC(=O)OC7)CC[C@]65O)C4)O[C@@H]3C)O[C@@H]2C)C[C@H](O)[C@@H]1O [Digitoxin]
[3]
  Steigerung der Löslichkeit in Wasser: 81,6 -fache

## CCOC(=O)c1cncn1[C@H](C)c1ccccc1 [Etomidat]
[1]; [11]
  Verhältnis R von Sättigungslöslichkeit mit und ohne Zusatz des β-Cyclodextrinderivats: 8,5

## COC(=O)Nc1nc2cc(C(=O)c3ccc(F)cc3)ccc2[nH]1 [Flubendazol]
[1]; [11]
  Verhältnis R von Sättigungslöslichkeit mit und ohne Zusatz des β-Cyclodextrinderivats: 30

## Fc1ccc(C(c2ccc(F)cc2)N2CCN(C/C=C/c3ccccc3)CC2)cc1 [Flunarizin]
[1]; [11]
  Verhältnis R von Sättigungslöslichkeit mit und ohne Zusatz des β-Cyclodextrinderivats: 18

## COc1ccc2c(c1)c(CC(=O)O)c(C)n2C(=O)c1ccc(Cl)cc1 [Indometacin]
[2]
  Verh.S1 zu S2: 30,1
[2]; 10% hp-beta-cd, pH 6.6
  solubility thermodynamic at 24 h: 5720 µg/mL (≈ 16000 µM)
[2]; pH 6.6, aqueous buffer
  solubility thermodynamic at 24 h: 190 µg/mL (≈ 531 µM)
[4]
  solubility: 210 µg/mL (≈ 587 µM)

## CCC(C)n1ncn(-c2ccc(N3CCN(c4ccc(OCC5COC(Cn6cncn6)(c6ccc(Cl)cc6Cl)O5)cc4)CC3)cc2)c1=O (stereo not drawn) [Itraconazol]
[1]; pH 2
  Verhältnis R von Sättigungslöslichkeit mit und ohne Zusatz des β-Cyclodextrinderivats: 75
[1]; pH 5
  Verhältnis R von Sättigungslöslichkeit mit und ohne Zusatz des β-Cyclodextrinderivats: 96

## CC(=O)N1CCN(c2ccc(OCC3COC(Cn4ccnc4)(c4ccc(Cl)cc4Cl)O3)cc2)CC1 (stereo not drawn) [Ketoconazol]
[1]
  Verhältnis R von Sättigungslöslichkeit mit und ohne Zusatz des β-Cyclodextrinderivats: 85

## CN(C)C(=O)C(CCN1CCC(O)(c2ccc(Cl)cc2)CC1)(c1ccccc1)c1ccccc1 [Loperamid]
[1]; [11]
  Verhältnis R von Sättigungslöslichkeit mit und ohne Zusatz des β-Cyclodextrinderivats: 62

## CC(=O)OC1(C(C)=O)CCC2C3CC(C)C4=CC(=O)CCC4(C)C3CCC21C (stereo not drawn) [Medroxyprogesteronacetat]
[5]
  Lösungsgeschwindigkeit: ~21 mal höher

## CC(=O)[C@H]1CC[C@H]2[C@@H]3CCC4=CC(=O)CC[C@]4(C)[C@H]3CC[C@]12C [Progesteron]
[2]
  Verh.S1 zu S2: 1083,0
[2]; 10% hp-beta-cd, pH 6.6
  solubility thermodynamic at 24 h: 7690 µg/mL (≈ 24500 µM)
[2]; pH 6.6, aqueous buffer
  solubility thermodynamic at 24 h: 7.1 µg/mL (≈ 22.6 µM)

## OC[C@H]1O[C@@H]2O[C@H]3[C@H](O)[C@@H](O)[C@@H](O[C@H]4[C@H](O)[C@@H](O)[C@@H](O[C@H]5[C@H](O)[C@@H](O)[C@@H](O[C@H]6[C@H](O)[C@@H](O)[C@@H](O[C@H]7[C@H](O)[C@@H](O)[C@@H](O[C@H]8[C@H](O)[C@@H](O)[C@@H](O[C@H]1[C@H](O)[C@H]2O)O[C@@H]8CO)O[C@@H]7CO)O[C@@H]6CO)O[C@@H]5CO)O[C@@H]4CO)O[C@@H]3CO [β-Cyclodextrin]
[6]
  Wasserlöslichkeit: 1,8 g pro 100 ml
[7]
  LD50: 453 mg/kg

## Dimethyl-β-cyclodextrin [Dimethyl-β-cyclodextrin (DS = 2,0)]
[8]
  C50 % (Konzentration, bei der eine 50 %-ige Hämolyse stattfand): 0,33%
  C100 % (Konzentration, bei der eine 100 % Hämolyse stattfand): 0,5%
[9]
  LD50 bei Ratten (i.v.): 200 - 207 mg/kg Körpergewicht

## Hydroxyethyl-β-cyclodextrin [Hydroxyethyl-β-cyclodextrin (MS 0.43)]
[10]
  Sättigungslöslichkeit des Cyclodextrinderivates im Puffer: 7,2 g/100 ml

## Hydroxypropyl-methyl-β-cyclodextrin
[8]
  C50 % (Konzentration, bei der eine 50 %-ige Hämolyse stattfand): 1,5%
  C100 % (Konzentration, bei der eine 100 % Hämolyse stattfand): 4%
  hämolytische Wirkung: 5 bis 8 mal geringer
[9]
  LD50 bei Ratten (i.v.): > 2000* mg/kg Körpergewicht

## Levocabastin
[1]; pH 7,4, 4 % Hydroxypropyl-methyl-β-cyclodextrin
  Verhältnis R von Sättigungslöslichkeit mit und ohne Zusatz des β-Cyclodextrinderivats: 8
[1]; pH 9,5, 4 % Hydroxypropyl-methyl-β-cyclodextrin
  Verhältnis R von Sättigungslöslichkeit mit und ohne Zusatz des β-Cyclodextrinderivats: 81

## Methyl-β-CD [Methyl-β-CD (DS = 1,79)]
[8]
  C50 % (Konzentration, bei der eine 50 %-ige Hämolyse stattfand): 0,53%
  C100 % (Konzentration, bei der eine 100 % Hämolyse stattfand): 0,8%

## Tubulazol
[1]; [11]
  Verhältnis R von Sättigungslöslichkeit mit und ohne Zusatz des β-Cyclodextrinderivats: 43
